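GI50 is the concentration that inhibits growth by half. TGI: concentration producing complete growth inhibition.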
How the values were obtained:
Assay in all cases: NCI-60 cell line screen, 384-well format; in the data active means GI50 below about 0.43 µM; inactive means the rest
A498 renal = tested on: A498 renal
A549 NSCLC = tested on: A549 NSCLC
ACHN renal = tested on: ACHN renal
BT-549 breast = tested on: BT-549 breast
CAKI-1 renal = tested on: CAKI-1 renal
COLO 205 colon = tested on: COLO 205 colon
DU-145 prostate = tested on: DU-145 prostate
EKVX NSCLC = tested on: EKVX NSCLC
HCC-2998 colon = tested on: HCC-2998 colon
HCT-116 colon = tested on: HCT-116 colon
HCT-15 colon = tested on: HCT-15 colon
HL-60(TB) leukemia = tested on: HL-60(TB) leukemia
HOP-62 NSCLC = tested on: HOP-62 NSCLC
HOP-92 NSCLC = tested on: HOP-92 NSCLC
HS 578T breast = tested on: HS 578T breast
HT29 colon = tested on: HT29 colon
IGROV1 ovarian = tested on: IGROV1 ovarian
KM12 colon = tested on: KM12 colon
LOX IMVI melanoma = tested on: LOX IMVI melanoma
M14 melanoma = tested on: M14 melanoma
MALME-3M melanoma = tested on: MALME-3M melanoma
MCF7 breast = tested on: MCF7 breast
MDA-MB-231 breast = tested on: MDA-MB-231 breast
MDA-MB-435 melanoma = tested on: MDA-MB-435 melanoma
MDA-MB-468 breast = tested on: MDA-MB-468 breast
MOLT-4 leukemia = tested on: MOLT-4 leukemia
NCI-H226 lung = tested on: NCI-H226 lung
NCI-H23 lung = tested on: NCI-H23 lung
NCI-H322M lung = tested on: NCI-H322M lung
NCI-H460 NSCLC = tested on: NCI-H460 NSCLC
NCI-H522 lung = tested on: NCI-H522 lung
NCI/ADR-RES ovarian = tested on: NCI/ADR-RES ovarian
OVCAR-3 ovarian = tested on: OVCAR-3 ovarian
OVCAR-4 ovarian = tested on: OVCAR-4 ovarian
OVCAR-5 ovarian = tested on: OVCAR-5 ovarian
OVCAR-8 ovarian = tested on: OVCAR-8 ovarian
PC-3 prostate = tested on: PC-3 prostate
RPMI-8226 leukemia = tested on: RPMI-8226 leukemia
RXF 393 renal = tested on: RXF 393 renal
SF-268 CNS = tested on: SF-268 CNS
SF-295 CNS = tested on: SF-295 CNS
SF-539 CNS = tested on: SF-539 CNS
SK-MEL-28 melanoma = tested on: SK-MEL-28 melanoma
SK-MEL-5 melanoma = tested on: SK-MEL-5 melanoma
SK-OV-3 ovarian = tested on: SK-OV-3 ovarian
SN12C renal = tested on: SN12C renal
SNB-19 CNS = tested on: SNB-19 CNS
SNB-75 CNS = tested on: SNB-75 CNS
SR leukemia = tested on: SR leukemia
T-47D breast = tested on: T-47D breast
TK-10 renal = tested on: TK-10 renal
U251 glioblastoma = tested on: U251 glioblastoma
UACC-257 melanoma = tested on: UACC-257 melanoma
UACC-62 melanoma = tested on: UACC-62 melanoma

O=C1Nc2ccc(CN3CCOC3=O)cc2/C1=C/c1cc(CN2CCOCC2)c[nH]1
> 100 µM: TGI (A498 renal) | TGI (A549 NSCLC) | TGI (ACHN renal) | TGI (CAKI-1 renal) | TGI (COLO 205 colon) | TGI (DU-145 prostate) | TGI (EKVX NSCLC) | TGI (HCT-116 colon) | TGI (HOP-92 NSCLC) | TGI (HS 578T breast) | TGI (HT29 colon) | TGI (IGROV1 ovarian) | TGI (KM12 colon) | TGI (M14 melanoma) | TGI (MALME-3M melanoma) | TGI (MCF7 breast) | TGI (MDA-MB-231 breast) | TGI (NCI-H23 lung) | TGI (NCI-H322M lung) | TGI (OVCAR-3 ovarian) | TGI (OVCAR-5 ovarian) | TGI (OVCAR-8 ovarian) | TGI (RXF 393 renal) | TGI (SF-268 CNS) | TGI (SF-295 CNS) | TGI (SF-539 CNS) | TGI (SK-MEL-28 melanoma) | TGI (SK-OV-3 ovarian) | TGI (SN12C renal) | TGI (SNB-19 CNS) | TGI (SNB-75 CNS) | TGI (TK-10 renal) | TGI (U251 glioblastoma) | TGI (UACC-257 melanoma) | TGI (UACC-62 melanoma)
44 µM: TGI (T-47D breast)
93.3 µM: TGI (OVCAR-4 ovarian)
75.9 µM: TGI (HOP-62 NSCLC)
68.1 µM: TGI (HCC-2998 colon)
30 µM: TGI (HL-60(TB) leukemia)
93.1 µM: TGI (HCT-15 colon)
68.3 µM: TGI (LOX IMVI melanoma)
83 µM: TGI (NCI-H226 lung)
30.6 µM: TGI (SR leukemia)
39.8 µM: TGI (RPMI-8226 leukemia)
36.5 µM: TGI (MOLT-4 leukemia)
30.8 µM: TGI (SK-MEL-5 melanoma)
58.9 µM: TGI (BT-549 breast)
76.7 µM: TGI (MDA-MB-435 melanoma)
inactive: GI50 (A498 renal) > 100 µM | GI50 (A549 NSCLC) 49.7 µM | GI50 (ACHN renal) 77.9 µM | GI50 (BT-549 breast) 24.5 µM | GI50 (CAKI-1 renal) 58.5 µM | GI50 (COLO 205 colon) 49.2 µM | GI50 (DU-145 prostate) 45.9 µM | GI50 (EKVX NSCLC) 38.2 µM | GI50 (HCC-2998 colon) 30.1 µM | GI50 (HCT-116 colon) 41.2 µM | GI50 (HCT-15 colon) 27.9 µM | GI50 (HL-60(TB) leukemia) 16.3 µM | GI50 (HOP-62 NSCLC) 31.6 µM | GI50 (HOP-92 NSCLC) > 100 µM | GI50 (HS 578T breast) 64.6 µM | GI50 (HT29 colon) 30.4 µM | GI50 (IGROV1 ovarian) 43.4 µM | GI50 (KM12 colon) 5.29 µM | GI50 (LOX IMVI melanoma) 28.7 µM | GI50 (M14 melanoma) 49 µM | GI50 (MALME-3M melanoma) > 100 µM | GI50 (MCF7 breast) 33.1 µM | GI50 (MDA-MB-231 breast) 58.8 µM | GI50 (MDA-MB-435 melanoma) 25.5 µM | GI50 (MDA-MB-468 breast) 23 µM | GI50 (MOLT-4 leukemia) 20.5 µM | GI50 (NCI-H226 lung) 33.3 µM | GI50 (NCI-H23 lung) 25.2 µM | GI50 (NCI-H322M lung) 43.7 µM | GI50 (NCI-H460 NSCLC) 19.6 µM | GI50 (NCI-H522 lung) 21.6 µM | GI50 (NCI/ADR-RES ovarian) 30 µM | GI50 (OVCAR-3 ovarian) 40.3 µM | GI50 (OVCAR-4 ovarian) 33.5 µM | GI50 (OVCAR-5 ovarian) > 100 µM | GI50 (OVCAR-8 ovarian) 37.8 µM | GI50 (PC-3 prostate) 35.3 µM | GI50 (RPMI-8226 leukemia) 18.2 µM | GI50 (RXF 393 renal) 96.3 µM | GI50 (SF-268 CNS) 49.9 µM | GI50 (SF-295 CNS) 33.8 µM | GI50 (SF-539 CNS) 53.8 µM | GI50 (SK-MEL-28 melanoma) 71.8 µM | GI50 (SK-MEL-5 melanoma) 15.7 µM | GI50 (SK-OV-3 ovarian) 43.5 µM | GI50 (SN12C renal) 27.1 µM | GI50 (SNB-19 CNS) 63.3 µM | GI50 (SNB-75 CNS) 86 µM | GI50 (SR leukemia) 14 µM | GI50 (T-47D breast) 17.5 µM | GI50 (TK-10 renal) 43.3 µM | GI50 (U251 glioblastoma) 42.2 µM | GI50 (UACC-257 melanoma) 35.6 µM | GI50 (UACC-62 melanoma) 45.1 µM
98.1 µM: TGI (PC-3 prostate)
85.1 µM: TGI (MDA-MB-468 breast)
40 µM: TGI (NCI-H460 NSCLC)
55.2 µM: TGI (NCI-H522 lung)
83.9 µM: TGI (NCI/ADR-RES ovarian)

— PubChem BioAssay (NCI)
